# According to patent US12629390B2, “Stabilized amorphous calcium carbonate for treatment of neurological, muscular and infertility diseases or conditions” (AMORPHICAL LTD., priority 2016, dated 2026):
# How the values were obtained:
# [1] = test system: mdx cell line; assay: myotube formation, CK activity and contraction in mdx cell line; assay type: cell-based, mice; settings: final Ca2+ 2 mM in Fusion Medium
# Procedure: Cells from the Mdx cell line were seeded in a Gelatin coated 12 wells culture plate, 3×10^4 cells/well containing 1 mL of Proliferation Medium. Two days later (˜66% confluence), the medium was changed to Fusion Medium which was changed twice a week. The various calcium preparations were separately added to the Fusion Medium according to the treatment described in Table 3. Cultures were enriched with the various calcium preparations, at Ca^2+ concentration of 1 mM. Since the medium already contained 1 mM of calcium ions, then the final concentration of Ca2+ was of 2 mM.
# The effects of the tested calcium preparations on cell proliferation, fusion to form myotubes and muscle contraction were monitored by daily phase contrast microscopic observation. At predetermined days, cultures were fixed in methanol for 20 minutes and then stained with Giemsa in order to evaluate the number of myotubes formed with time in cultures.
# At predetermined days, cells were collected from culture wells (using a rubber policeman) and kept in 1 mL PBS (without Ca^2+) at −70° C. until analyzed. For CK measurement cell samples were thawed and physically lysed using a sonicator, to release the CK from muscle myotubes. CK concentration was determined using Creatine Kinase Activity Assay Kit (CK-NAC REAGENT SET, CURTISS, CHEM-INDEX INC, Hialeah, FL, USA).
# [2] = test system: MBA-13 cells; assay: Alizarin red staining of MBA13 stem cells differentiating to osteoblasts; assay type: cell-based; settings: 10 days in culture
# Procedure: Two days following thawing, MBA-13 cells (received from Prof. Dov Zipori, Weizmann Institute of Science) were re-suspended in recombinant trypsin solution and seeded on a 96 wells plate, (Day “0”) in a concentration of 1×10^4 cells/well using MSC Nutristem® XF basal medium (Biological Industries, cat #05-200-1A) supplemented with Mesenchymal stem cells (MSC) supplement mix medium (Biological Industries cat #05-201-06) in a ratio of 50 ml:300 μl. […] Row G in the plate was treated with MSCgo medium (total 1.488 mM calcium). Row H of the plate was treated with MSC NutriStem® XF nutrient basal medium+supplement mix (total 1.488 mM calcium). On day 4, medium was exchanged with fresh preparations of ACC. […] Once the cells were fixated, two types of staining reagents were used to stain extracellular calcium or bone deposition in order to estimate osteoblasts functionality: (i) Alizarin red (Sigma A55333) and (ii) Alkaline Phosphatase (DAKO BCIP/NBT substrate system […]) as following: Alizarin red staining procedure-pH was adjusted to 4.2. Cells were washed twice with PBS and fixed with cold methanol for 5 minutes and then washed again with PBS. […] Following staining incubation, the samples were washed with water 2-3 times to remove unspecific staining.
# [3] = test system: healthy skeletal muscle cultures; assay: myotube formation and contraction in healthy skeletal muscle cultures; assay type: cell-based, rat; settings: added at 1 mM (final Ca2+ 2 mM)
# Procedure: Stationary skeletal muscle cultures were prepared from healthy 1 day new born rat (Sprague Dawley, Harlan, Israel). The muscle tissue was dissected from posterior legs and was thoroughly minced. Digestion was performed with Trypsin-EDTA while gentle trituration. After 30 min the supernatant, containing dissociated cells, was collected and a fresh Trypsin-EDTA was added. This procedure was repeated two more times. Then, all supernatants were pooled, centrifuged, and the cell pellet was re-suspended in Proliferation Medium. Cells were seeded in a Gelatin coated 12 wells culture plates, 1×10^5 cells/well containing 1 mL of Proliferation Medium. Two days later, the medium was changed to Fusion Medium, which was then changed twice a week. The cultures were monitored by daily phase contrast microscopic observations from 24 hours after setting the cultures and onward.
# Stock solution of 1% porcine gelatin in water, was sterilized by autoclave. Once cooled, 500 μl of the solution were added to each well of the 12-wells culture plat. After incubation for 20 min at room temperature, the excess solution was removed, and the cells were seeded.
# For the proliferation stage, cells were cultured in: DMEM/F12 (containing 1 mM Ca^2+) +10% FBS, 25 μg/mL Gentamycin, and 2 mM L-Glutamine.
# For the fusion stage the Proliferation Medium was changed with Fusion Medium, which was prepared as following: DMEM/F12 (containing 1 mM Ca2+), 2% horse serum (HS), 2 mM L-Glutamine, 25 μg/mL Gentamycin, and 4 units/100 mL Insulin (all purchased from Biological-Industries, Israel).
# Control cultures were grown without further added calcium, or cultures enriched with free (soluble) stabilizer. The experiment was blinded by marking the various calcium preparations with arbitrary numerals only.
# The components were added in one of the following ways: (i) aqueous suspensions of dry material; (ii) aqueous suspension of fresh material (before drying), or (iii) dissolved with HCl (to mimic the acidity which exists in the stomach. After dissolving was accomplished, the formed solutions were neutralized with 1M NaOH).
# [4] = test system: spinal cord-dorsal root ganglia (SC-DRG) slices; assay: nerve fiber sprouting from SC-DRG co-cultures; assay type: cell-based, rat; settings: calcium preparation at Ca2+ 2 mM; after 4 days of cultivation; portion of explants (out of 6)
# Procedure: Neural and Vascular Reconstruction Gel ([…] Labs proprietary) is composed of two main components: high molecular hyaluronic acid (HA, 3×10^6 Da, BTG, Israel) and laminin (Sigma). […] The gel has the texture of a viscous liquid, it adheres easily and successfully the embedded cells or explants to the plastic or glass substratum, and enabled nerve fiber outgrowth in a 3D pattern. All the experiments were carried out and authorized by the local ethics committee recognized by the Israeli authorities for animal experimentation. Stationary organotypic cultures of dorsal root ganglia (DRG) and spinal cord (SC) as well as cultures of dissociated brain cells were prepared from rat fetuses (15 days of gestation, Lewis inbred, Harlan, Israel). Immediately after dissection, the isolated tissues were cut with a […] tissue chopper into small slices (of 400 μm thickness). In these studies, two tissue culture strategies were used. […] In the second method, the tissue slices were further dissociated with a trypsin-EDTA solution for 30 min, and washed with a culture medium. Subsequently, the dissociated cells were added to a suspension of chitosan powder or gastrolith powder (micro carriers, MCs) and incubated in suspension at 37° C. for 4 days. […] Calcium source were as following: ACC-Etidronic Acid (ACC-ET) (fresh suspension); ACC-Phosphoserine (ACC-PS) (fresh suspension); Gastrolith (dissolved with 0.1 M HCl and then neutralized with NaOH 1M); gastrolith powder; […] The cultures were monitored by daily phase contrast microscopic observations starting from 24 hours after setting the cultures onward. Suspensions of fresh ACC preparations consisted of particles forming a stable suspension. The gastrolith is a natural ACC isolated from crabs, and can be purchased only as a dry powder. In this form, its other characteristic components (such as calcium ions and proteins) are not available to the cells. In order to increase their bioavailability, the gastrolith powder was dissolved in 0.1 M HCl (which mimics the acidity which exists in the stomach) and then neutralized with 1M NaOH. […] The specimens were then incubated with rabbit anti-neurofilament antibodies (NF, Novus Biologicals, 1:500) to visualize the neurite outgrowth. […] Finally, the samples were rinsed again with wash buffer, and mounted with mounting medium (Immco Diagnostic, USA).
smiles,measurement,setting,value
"[Ca+2].[Cl-].[Cl-] [CaCl2, calcium chloride]","muscle contractions observed, day after seeding",[1],≥ 10 days
same,Alizarin Red staining signal,"[2]; additional 1 mM calcium in MSCgo rapid osteogenic medium, gelatin coating",weak signal
same,large calcium deposition plaques,[2]; additional 1 mM calcium,not observed
same,muscle fibers after 7 days,[3],"fewer, thinner and shorter muscle fibers"
same,"early formation of many myotubes, time of cultivation",[3]; dry powder suspended in water,later
same,Cultures with axonal regeneration (%),[4],50%
